This experiment deals with T1, hTRPA1 (Homo sapiens, UniProt O75762).
T1 construct: gene TRPA1
As to the kind of experiment: ratiometric calcium imaging and whole-cell patch clamp in CHO cells with inducible hTRPA1; non-induced cells as control. Type of experiment: cell-based.

Read-outs that look alike come from different tables or passages of the source.

T1 sequence (O75762 whole entry): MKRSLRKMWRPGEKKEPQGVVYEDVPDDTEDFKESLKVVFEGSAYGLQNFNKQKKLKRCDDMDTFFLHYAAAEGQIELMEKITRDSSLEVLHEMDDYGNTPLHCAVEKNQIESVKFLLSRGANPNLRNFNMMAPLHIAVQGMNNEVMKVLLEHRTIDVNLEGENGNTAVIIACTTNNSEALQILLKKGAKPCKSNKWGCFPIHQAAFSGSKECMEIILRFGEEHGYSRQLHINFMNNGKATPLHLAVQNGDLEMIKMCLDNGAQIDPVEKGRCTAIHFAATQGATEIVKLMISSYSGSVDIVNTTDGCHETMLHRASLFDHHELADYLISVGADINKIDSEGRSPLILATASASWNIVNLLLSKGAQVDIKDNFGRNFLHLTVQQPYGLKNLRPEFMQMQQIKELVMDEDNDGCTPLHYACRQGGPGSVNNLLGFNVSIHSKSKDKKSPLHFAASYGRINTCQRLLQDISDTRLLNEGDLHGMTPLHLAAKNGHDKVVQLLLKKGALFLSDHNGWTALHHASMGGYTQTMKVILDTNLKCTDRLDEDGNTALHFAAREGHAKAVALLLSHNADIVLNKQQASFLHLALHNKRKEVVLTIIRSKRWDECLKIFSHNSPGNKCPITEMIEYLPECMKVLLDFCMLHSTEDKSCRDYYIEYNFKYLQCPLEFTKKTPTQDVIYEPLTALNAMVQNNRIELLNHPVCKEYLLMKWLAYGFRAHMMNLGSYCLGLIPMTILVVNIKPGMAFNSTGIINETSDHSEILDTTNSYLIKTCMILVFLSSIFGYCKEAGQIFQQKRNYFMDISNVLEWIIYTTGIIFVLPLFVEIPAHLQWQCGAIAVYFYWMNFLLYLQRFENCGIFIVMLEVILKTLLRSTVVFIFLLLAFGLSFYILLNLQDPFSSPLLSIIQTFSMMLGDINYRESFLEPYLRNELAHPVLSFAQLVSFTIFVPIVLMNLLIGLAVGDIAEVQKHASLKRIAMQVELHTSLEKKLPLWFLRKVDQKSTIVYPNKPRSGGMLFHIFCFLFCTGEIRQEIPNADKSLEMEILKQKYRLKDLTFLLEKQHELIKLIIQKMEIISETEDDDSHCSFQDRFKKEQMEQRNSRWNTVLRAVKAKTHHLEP

On to `CC(C)c1ccc(C=O)cc1` [cuminaldehyde], for which the EC50 (read-out: EC50) was found to be 720 µM.

As for `COc1ccc(C=O)cc1` [p-anisaldehyde], the EC50 stood at 910 µM. As to `C/C=C(\C)C=O` [tiglic aldehyde], the EC50 (read-out: EC50) turned out to be 1490 µM.

The term EC50 denotes the concentration giving half of the maximal effect.

(Values after PMC7343857, “New natural agonists of the transient receptor potential Ankyrin 1 (TRPA1) channel” (Scientific Reports, 2020).)
